Source: patent publication US20070142392A1, “Uses of rifamycins” (ActivBiotics, Inc., priority 2005, published 2007)
Values after ≈ are worked out from the molar mass of the structure shown.

Assays:
Format in all cases: cell-based
S. aureus = test: MIC values, S. aureus (Tables 1-4)
S. pneumo. = test: MIC values, S. pneumo. (Tables 1-4)
E. faecalis = test: MIC values, E. faecalis (Tables 1-4)
H. flu = test system: H. flu
E. coli = test: MIC values, E. coli (Tables 1-4)

| Compound | MIC S. aureus (S. aureus) | MIC S. pneumo. (S. pneumo.) | MIC E. faecalis (E. faecalis) | MIC H. flu (H. flu) | MIC E. coli (E. coli) |
| --- | --- | --- | --- | --- | --- |
| CO[C@H]1/C=C/O[C@@]2(C)Oc3c(C)c(O)c4c(=O)c(c5sc6cc(N7CCC(N(C)C)CC7)ccc6nc-5c4c3C2=O)NC(=O)/C(C)=C\C=C\[C@H](C)[C@H](O)[C@@H](C)[C@@H](O)[C@@H](C)[C@H](OC(C)=O)[C@@H]1C [Compound 69] | 15 ng/mL (≈ 0.0162 µM) | 0.25 ng/mL (≈ 0.00027 µM) | 0.5 µg/mL (≈ 0.539 µM) | 0.5 µg/mL (≈ 0.539 µM) | 4 µg/mL (≈ 4.31 µM) |
| COC1C=COC2(C)Oc3c(C)c(O)c4c(=O)c(c5sc6cc(N7CC(C)N(CC8CC8)CC7C)ccc6nc-5c4c3C2=O)NC(=O)C(C)=CC=CC(C)C(O)C(C)C(O)C(C)C(O)C1C (stereo not shown) [Compound 70] | 30 ng/mL (≈ 0.0324 µM) | 1 ng/mL (≈ 0.00108 µM) | 1 µg/mL (≈ 1.08 µM) | 1 µg/mL (≈ 1.08 µM) | >8 µg/mL |
| CO[C@H]1/C=C/O[C@@]2(C)Oc3c(C)c(O)c4c(=O)c(c5oc6cc(N7CCC(C)(N(C)C)CC7)cc(O)c6nc-5c4c3C2=O)NC(=O)/C(C)=C\C=C\[C@H](C)[C@H](O)[C@@H](C)[C@@H](O)[C@@H](C)[C@H](OC(C)=O)[C@@H]1C [Compound 71] | 8 ng/mL (≈ 0.0085 µM) | 0.12 ng/mL (≈ 0.000128 µM) | 0.25 µg/mL (≈ 0.266 µM) | 0.5 µg/mL (≈ 0.531 µM) | 4 µg/mL (≈ 4.25 µM) |
| CO[C@H]1/C=C/O[C@@]2(C)Oc3c(C)c(O)c4c(=O)c(c5oc6cc(N7CCC(C)(NC(C)=O)CC7)cc(O)c6nc-5c4c3C2=O)NC(=O)/C(C)=C\C=C\[C@H](C)[C@H](O)[C@@H](C)[C@@H](O)[C@@H](C)[C@H](OC(C)=O)[C@@H]1C [Compound 72] | 8 ng/mL (≈ 0.00838 µM) | 0.25 ng/mL (≈ 0.000262 µM) | 2 µg/mL (≈ 2.09 µM) | 0.5 µg/mL (≈ 0.524 µM) | >8 µg/mL |
| CO[C@H]1/C=C/O[C@@]2(C)Oc3c(C)c(O)c4c(=O)c(c5oc6cc(N7CCC(C)(N(C)C)CC7)cc(O)c6nc-5c4c3C2=O)NC(=O)/C(C)=C\C=C\[C@H](C)[C@H](O)[C@@H](C)[C@@H](O)[C@@H](C)[C@H](O)[C@@H]1C [Compound 73] | 2 ng/mL (≈ 0.00222 µM) | 0.25 ng/mL (≈ 0.000278 µM) | 0.03 µg/mL (≈ 0.0334 µM) | 0.12 µg/mL (≈ 0.133 µM) | 2 µg/mL (≈ 2.22 µM) |
| CO[C@H]1/C=C/O[C@@]2(C)Oc3c(C)c(O)c4c(=O)c(c5oc6cc(N7CCC(C)(NC(C)=O)CC7)cc(O)c6nc-5c4c3C2=O)NC(=O)/C(C)=C\C=C\[C@H](C)[C@H](O)[C@@H](C)[C@@H](O)[C@@H](C)[C@H](O)[C@@H]1C [Compound 74] | 30 ng/mL (≈ 0.0329 µM) | 1 ng/mL (≈ 0.0011 µM) | 0.5 µg/mL (≈ 0.548 µM) | 0.12 µg/mL (≈ 0.131 µM) | >8 µg/mL |
| CO[C@H]1/C=C/O[C@@]2(C)Oc3c(C)c(O)c4c(=O)c(c5oc6cc(N7CC[C@@H](N(C)C)C7)cc(O)c6nc-5c4c3C2=O)NC(=O)/C(C)=C\C=C\[C@H](C)[C@H](O)[C@@H](C)[C@@H](O)[C@@H](C)[C@H](OC(C)=O)[C@@H]1C [Compound 75] | 2 ng/mL (≈ 0.00219 µM) | 0.12 ng/mL (≈ 0.000131 µM) | 0.12 µg/mL (≈ 0.131 µM) | 0.25 µg/mL (≈ 0.274 µM) | 4 µg/mL (≈ 4.38 µM) |
| COC1C=COC2(C)Oc3c(C)c(O)c4c(=O)c(c5sc6cc(N7CCN8CCCC8C7)ccc6nc-5c4c3C2=O)NC(=O)C(C)=CC=CC(C)C(O)C(C)C(O)C(C)C(OC(C)=O)C1C (stereo not shown) [Compound 76] | 8 ng/mL (≈ 0.00865 µM) | 0.25 ng/mL (≈ 0.00027 µM) | 0.5 µg/mL (≈ 0.54 µM) | 0.25 µg/mL (≈ 0.27 µM) | 4 µg/mL (≈ 4.32 µM) |
| COC1C=COC2(C)Oc3c(C)c(O)c4c(=O)c(c5sc6cc(N7CCN8CCCC8C7)ccc6nc-5c4c3C2=O)NC(=O)C(C)=CC=CC(C)C(O)C(C)C(O)C(C)C(O)C1C (stereo not shown) [Compound 77] | 2 ng/mL (≈ 0.00226 µM) | 0.25 ng/mL (≈ 0.000283 µM) | 0.25 µg/mL (≈ 0.283 µM) | 0.12 µg/mL (≈ 0.136 µM) | 2 µg/mL (≈ 2.26 µM) |
| COC1C=COC2(C)Oc3c(C)c(O)c4c(=O)c(c5oc6cc(N7CCN8CCCC8C7)cc(O)c6nc-5c4c3C2=O)NC(=O)C(C)=CC=CC(C)C(O)C(C)C(O)C(C)C(O)C1C (stereo not shown) [Compound 87] | 2 ng/mL (≈ 0.00226 µM) | 0.25 ng/mL (≈ 0.000283 µM) | 0.03 µg/mL (≈ 0.034 µM) | 0.25 µg/mL (≈ 0.283 µM) | 4 µg/mL (≈ 4.53 µM) |
| COC1C=COC2(C)Oc3c(C)c(O)c4c(=O)c(c5oc6cc(N7CCN8CCCC8C7)cc(O)c6nc-5c4c3C2=O)NC(=O)C(C)=CC=CC(C)C(O)C(C)C(O)C(C)C(O)C1C (stereo not shown) [Compound 88] | 4 ng/mL (≈ 0.00453 µM) | 0.25 ng/mL (≈ 0.000283 µM) | 0.03 µg/mL (≈ 0.034 µM) | 0.25 µg/mL (≈ 0.283 µM) | 8 µg/mL (≈ 9.06 µM) |
| CO[C@H]1/C=C/O[C@@]2(C)Oc3c(C)c(O)c4c(=O)c(c5oc6cc(N7CCN(Cc8ccccc8)CC7)cc(O)c6nc-5c4c3C2=O)NC(=O)/C(C)=C\C=C\[C@H](C)[C@H](O)[C@@H](C)[C@@H](O)[C@@H](C)[C@H](O)[C@@H]1C [Compound 89] | 30 ng/mL (≈ 0.0322 µM) | 1 ng/mL (≈ 0.00107 µM) | >8 µg/mL | 8 µg/mL (≈ 8.57 µM) | >8 µg/mL |
| CO[C@H]1/C=C/O[C@@]2(C)Oc3c(C)c(O)c4c(=O)c(c5oc6cc(N7C[C@@H](C)N[C@@H](C)C7)cc(O)c6nc-5c4c3C2=O)NC(=O)/C(C)=C\C=C\[C@H](C)[C@H](O)[C@@H](C)[C@@H](O)[C@@H](C)[C@H](O)[C@@H]1C [Compound 90] | 8 ng/mL (≈ 0.00918 µM) | 0.5 ng/mL (≈ 0.000574 µM) | 0.06 µg/mL (≈ 0.0689 µM) | 0.25 µg/mL (≈ 0.287 µM) | 4 µg/mL (≈ 4.59 µM) |
| CC[C@@H]1CN(c2cc(O)c3nc4c5c6c7c(C)c(O)c5c(=O)c(c-4oc3c2)NC(=O)/C(C)=C\C=C\[C@H](C)[C@H](O)[C@@H](C)[C@@H](O)[C@@H](C)[C@H](O)[C@H](C)[C@@H](OC)/C=C/O[C@@](C)(O7)C6=O)C[C@H](CC)N1 [Compound 91] | 30 ng/mL (≈ 0.0334 µM) | 0.5 ng/mL (≈ 0.000556 µM) | 0.12 µg/mL (≈ 0.133 µM) | 0.25 µg/mL (≈ 0.278 µM) | 4 µg/mL (≈ 4.45 µM) |
| COCCN1CCN(c2cc(O)c3nc4c5c6c7c(C)c(O)c5c(=O)c(c-4oc3c2)NC(=O)/C(C)=C\C=C\[C@H](C)[C@H](O)[C@@H](C)[C@@H](O)[C@@H](C)[C@H](O)[C@H](C)[C@@H](OC)/C=C/O[C@@](C)(O7)C6=O)CC1 [Compound 92] | 4 ng/mL (≈ 0.00444 µM) | 0.25 ng/mL (≈ 0.000277 µM) | 0.12 µg/mL (≈ 0.133 µM) | 0.25 µg/mL (≈ 0.277 µM) | 8 µg/mL (≈ 8.88 µM) |
| CC[C@H]1CN(c2cc(O)c3nc4c5c6c7c(C)c(O)c5c(=O)c(c-4oc3c2)NC(=O)/C(C)=C\C=C\[C@H](C)[C@H](O)[C@@H](C)[C@@H](O)[C@@H](C)[C@H](O)[C@H](C)[C@@H](OC)/C=C/O[C@@](C)(O7)C6=O)C[C@H](C)N1 [Compound 93] | 4 ng/mL (≈ 0.00452 µM) | 0.12 ng/mL (≈ 0.000136 µM) | 0.5 µg/mL (≈ 0.565 µM) | 0.25 µg/mL (≈ 0.282 µM) | 4 µg/mL (≈ 4.52 µM) |
| CCOc1c(N2CCN(CC)CC2)ccc2nc3c4c5c6c(C)c(O)c4c(=O)c(c-3oc12)NC(=O)/C(C)=C\C=C\[C@H](C)[C@H](O)[C@@H](C)[C@@H](O)[C@@H](C)[C@H](O)[C@H](C)[C@@H](OC)/C=C/O[C@@](C)(O6)C5=O [Compound 94] | 8 ng/mL (≈ 0.0089 µM) | 0.5 ng/mL (≈ 0.000556 µM) | 0.5 µg/mL (≈ 0.556 µM) | 0.25 µg/mL (≈ 0.278 µM) | 8 µg/mL (≈ 8.9 µM) |
| CCOc1c(N2CCN(CCOC)CC2)cc(N2CCN(CCOC)CC2)c2nc3c4c5c6c(C)c(O)c4c(=O)c(c-3oc12)NC(=O)/C(C)=C\C=C\[C@H](C)[C@H](O)[C@@H](C)[C@@H](O)[C@@H](C)[C@H](O)[C@H](C)[C@@H](OC)/C=C/O[C@@](C)(O6)C5=O [Compound 95] | 120 ng/mL (≈ 0.112 µM) | 1 ng/mL (≈ 0.000933 µM) | 8 µg/mL (≈ 7.47 µM) | 2 µg/mL (≈ 1.87 µM) | >8 µg/mL |
| CCOc1c(N2CCN(CCOC)CC2)ccc2nc3c4c5c6c(C)c(O)c4c(=O)c(c-3oc12)NC(=O)/C(C)=C\C=C\[C@H](C)[C@H](O)[C@@H](C)[C@@H](O)[C@@H](C)[C@H](O)[C@H](C)[C@@H](OC)/C=C/O[C@@](C)(O6)C5=O [Compound 96] | 15 ng/mL (≈ 0.0161 µM) | 5 ng/mL (≈ 0.00538 µM) | 1 µg/mL (≈ 1.08 µM) | 0.5 µg/mL (≈ 0.538 µM) | >8 µg/mL |
| CO[C@H]1/C=C/O[C@@]2(C)Oc3c(C)c(O)c4c(=O)c(c5oc6cc(N7CCN(C8CCN(C)CC8)CC7)cc(O)c6nc-5c4c3C2=O)NC(=O)/C(C)=C\C=C\[C@H](C)[C@H](O)[C@@H](C)[C@@H](O)[C@@H](C)[C@H](O)[C@@H]1C [Compound 98] | 15 ng/mL (≈ 0.016 µM) | 2 ng/mL (≈ 0.00213 µM) | 0.5 µg/mL (≈ 0.532 µM) | 1 µg/mL (≈ 1.06 µM) | >8 µg/mL |
| CO[C@H]1/C=C/O[C@@]2(C)Oc3c(C)c(O)c4c(=O)c(c5oc6cc(N7CCN(CC8CC8)CC7)cc(O)c6nc-5c4c3C2=O)NC(=O)/C(C)=C\C=C\[C@H](C)[C@H](O)[C@@H](C)[C@@H](O)[C@@H](C)[C@H](O)[C@@H]1C [Compound 99] | 8 ng/mL (≈ 0.00892 µM) | 0.5 ng/mL (≈ 0.000557 µM) | 0.06 µg/mL (≈ 0.0669 µM) | 0.25 µg/mL (≈ 0.279 µM) | 2 µg/mL (≈ 2.23 µM) |
| COC1C=COC2(C)Oc3c(C)c(O)c4c(=O)c(c5oc6cc(N7CC(C)NCC7C)cc(O)c6nc-5c4c3C2=O)NC(=O)C(C)=CC=CC(C)C(O)C(C)C(O)C(C)C(O)C1C (stereo not shown) [Compound 100] | 4 ng/mL (≈ 0.00459 µM) | 0.5 ng/mL (≈ 0.000574 µM) | 0.12 µg/mL (≈ 0.138 µM) | 0.25 µg/mL (≈ 0.287 µM) | 4 µg/mL (≈ 4.59 µM) |
| CO[C@H]1/C=C/O[C@@]2(C)Oc3c(C)c(O)c4c(=O)c(c5oc6cc(N7CCN(CCO)CC7)cc(O)c6nc-5c4c3C2=O)NC(=O)/C(C)=C\C=C\[C@H](C)[C@H](O)[C@@H](C)[C@@H](O)[C@@H](C)[C@H](O)[C@@H]1C [Compound 101] | 8 ng/mL (≈ 0.00902 µM) | 0.5 ng/mL (≈ 0.000564 µM) | 0.12 µg/mL (≈ 0.135 µM) | 0.25 µg/mL (≈ 0.282 µM) | 8 µg/mL (≈ 9.02 µM) |
